The target in the test is T1, AsLOV2 (Avena sativa, UniProt O49003, C450A).
T1 construct: gene NPH1-1; LOV2 domain, residues 404-547, N-terminal His10-tag kept (first 31 residues not native), E. coli BL21(DE3)
As to the kind of experiment: co-purified holoprotein; absorption and fluorescence spectra, FMN triplet lifetime, […] kDa filtration. Type of test: binding. The settings on record: 20 mM Tris-HCl pH 7.8, room temperature; before irradiation; no covalent adduct possible.

T1 sequence (O49003 entry or part of it C450A): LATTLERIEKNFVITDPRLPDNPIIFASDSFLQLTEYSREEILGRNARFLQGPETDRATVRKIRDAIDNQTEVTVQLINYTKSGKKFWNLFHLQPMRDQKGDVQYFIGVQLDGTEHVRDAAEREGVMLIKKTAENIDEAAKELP

For `Cc1cc2nc3c(=O)[nH]c(=O)nc-3n(C[C@H](O)[C@H](O)[C@H](O)COP(=O)(O)O)c2cc1C` [flavin mononucleotide], the “co-purified holoprotein; absorption and fluorescence spectra, FMN triplet lifeti” value is “before irradiation there was no free FMN detected in the filtrate”.

(Values after paper PMC7058016, “Photoinduced damage of AsLOV2 domain is accompanied by increased singlet oxygen production due to flavin dissociation” (Scientific Reports, 2020).)
